Experimental data taken from US8227620B2, “Pharmaceutical compounds” (Neuroscienze Pharmaness S.C. A.R.L., priority 2004, dated 2012).

Legend:
CB1 receptors [1] = target: T1, CB1 receptors (Rattus norvegicus, UniProt P20272); assay: Hypothermia test in vivo, compound alone (rectal temperature); set-up: from tissue; host or cells: whole animal (rat), central CB1 receptors of the hypothalamus; conditions: i.p., doses 0.1, 0.5, 1.0, 3.0, 6.0 mg/kg, versus physiological solution (38° C.)
Procedure: The test was carried out with the compound of the Example 3.1c. Aqueous samples were used wherein the compound of the Example 3.1c was dispersed in water with three drops of Tween 80. Following the above procedure, treatments were carried out with doses (mg compound/kg of body weight) respectively of 0.1; 0.5; 1.0; 3.0; 6.0.

CB2 receptors = target: T2, CB2 receptors (Rattus norvegicus, UniProt Q9QZN9); assay: Radioreceptor binding, [3H]-CP-55,940 displacement, rat spleen membranes; conditions: 1 nM [3H]-CP55,940
T2 construct: the brain in toto (cerebellum excluded) and the spleen were rapidely dissected; from tissue; host or cells: rat spleen membranes
T2 sequence (Q9QZN9 1-360): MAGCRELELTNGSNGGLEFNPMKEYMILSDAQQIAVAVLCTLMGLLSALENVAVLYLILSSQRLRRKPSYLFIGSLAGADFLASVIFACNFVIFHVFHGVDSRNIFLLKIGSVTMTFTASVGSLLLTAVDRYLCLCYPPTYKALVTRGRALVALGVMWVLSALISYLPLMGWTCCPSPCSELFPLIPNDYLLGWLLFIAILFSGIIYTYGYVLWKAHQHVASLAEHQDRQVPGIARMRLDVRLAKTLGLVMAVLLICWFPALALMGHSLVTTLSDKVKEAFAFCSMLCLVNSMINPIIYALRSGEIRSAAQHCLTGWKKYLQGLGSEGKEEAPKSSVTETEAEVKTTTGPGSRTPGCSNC
Text: The receptorial binding technique allows indeed to establish if and with what affinity and specificity a determined compound binds itself to a particular receptor. To evaluate the affinity of a determined compound towards a particular receptor, a particular preparation of the tissue wherein the receptors are present is used and the tested compound is made to compete with another compound, treated so as to make it radioactive and of which the affinity for the receptor is known. […] The reading of the radioactivity present in the receptor-compound complex allows furthermore to precisely calculate the compound amount bound to the receptor. By this method it is therefore possible to rapidely identify the affinity of a new compound towards a specific receptor and thus to make predictions on its pharmacological activity. By repeating the same experimental scheme it is possible to evaluate the affinity of the compound towards other kinds of receptors and thus establish the specificity degree.
Food and water were available ad libitum.
The animals were sacrificed by cervical dislocation, the brain in toto (cerebellum excluded) and the spleen were rapidely dissected and maintained in ice.
The tissue was homogenized in 15 volumes (weight/volume) of TME buffer (50 mM Tris, 1 mM EDTA e 3 mM MgCl2, pH 7.4) by an Ultra-Turrax and centrifuged for 10 minutes at 1086×g in a centrifuge cooled at 4° C. The resulting supernatant was centrifuged at 45,000×g for 30 min at 4° C. by using a Beckman SW41 rotor and the final pellet was resuspended in 50 volumes of TME.
The obtained membranes (50-80 μg of proteins) were incubated in the presence of 1 nM di [^3H]-CP55,940 for 1 h at 30° C. in a final volume of 0.5 ml of TME buffer containing 5 mg/ml of bovine serum albumin (BSA). The non specific binding was measured in the presence of CP55,940 at the 1 μM concentration. […]
The radioactivity present in the filters was measured by a scintillator spectrophotometer (Tricarb 2100, Packard, Meridien, USA). […]

CB1 receptors [2] = target: T1, CB1 receptors; assay: Antagonism of WIN 55,212-2 induced hypothermia in vivo; conditions: for capability to pass the hemato-encephalic barrier: concluded from the hypothermia test; for antagonism of the body temperature reduction induced by WIN 55,212-2: i.p., compound 30 minutes before WIN 55,212-2 (3 mg/kg)
Procedure: The rectal temperature in the rat was determined by an electronic thermometer inserted at a 2 mm depth. The measurements were carried out on rats acclimated for one hour. The rectal temperature was determined before and after (from 30 to 120 minutes) the i.p. administration of the compound to be tested.
Each test was repeated on ten animals; the reported results are the average of the results obtained with the ten animals.

[3] = WIN 55,212-2 (3 mg/kg) + compound 0.1 mg/kg, 0 min from WIN administration
[4] = WIN 55,212-2 (3 mg/kg) + compound 0.1 mg/kg, 15 min
[5] = WIN 55,212-2 (3 mg/kg) + compound 0.1 mg/kg, 30 min
[6] = WIN 55,212-2 (3 mg/kg) + compound 0.1 mg/kg, 60 min
[7] = WIN 55,212-2 (3 mg/kg) + compound 0.1 mg/kg, 90 min
[8] = WIN 55,212-2 (3 mg/kg) + compound 0.1 mg/kg, 120 min
[9] = WIN 55,212-2 (3 mg/kg) + compound 0.5 mg/kg, 0 min from WIN administration
[10] = WIN 55,212-2 (3 mg/kg) + compound 0.5 mg/kg, 15 min
[11] = WIN 55,212-2 (3 mg/kg) + compound 0.5 mg/kg, 30 min
[12] = WIN 55,212-2 (3 mg/kg) + compound 0.5 mg/kg, 60 min
[13] = WIN 55,212-2 (3 mg/kg) + compound 0.5 mg/kg, 90 min
[14] = WIN 55,212-2 (3 mg/kg) + compound 0.5 mg/kg, 120 min
[15] = WIN 55,212-2 (3 mg/kg) + compound 1.0 mg/kg, 0 min from WIN administration
[16] = WIN 55,212-2 (3 mg/kg) + compound 1.0 mg/kg, 15 min
[17] = WIN 55,212-2 (3 mg/kg) + compound 1.0 mg/kg, 30 min
[18] = WIN 55,212-2 (3 mg/kg) + compound 1.0 mg/kg, 60 min
[19] = WIN 55,212-2 (3 mg/kg) + compound 1.0 mg/kg, 90 min
[20] = WIN 55,212-2 (3 mg/kg) + compound 1.0 mg/kg, 120 min
[21] = WIN 55,212-2 (3 mg/kg) + compound 3.0 mg/kg, 0 min from WIN administration
[22] = WIN 55,212-2 (3 mg/kg) + compound 3.0 mg/kg, 15 min
[23] = WIN 55,212-2 (3 mg/kg) + compound 3.0 mg/kg, 30 min
[24] = WIN 55,212-2 (3 mg/kg) + compound 3.0 mg/kg, 60 min
[25] = WIN 55,212-2 (3 mg/kg) + compound 3.0 mg/kg, 90 min
[26] = WIN 55,212-2 (3 mg/kg) + compound 3.0 mg/kg, 120 min
[27] = WIN 55,212-2 (3 mg/kg) + compound 6.0 mg/kg, 0 min from WIN administration
[28] = WIN 55,212-2 (3 mg/kg) + compound 6.0 mg/kg, 15 min
[29] = WIN 55,212-2 (3 mg/kg) + compound 6.0 mg/kg, 30 min
[30] = WIN 55,212-2 (3 mg/kg) + compound 6.0 mg/kg, 60 min
[31] = WIN 55,212-2 (3 mg/kg) + compound 6.0 mg/kg, 90 min
[32] = WIN 55,212-2 (3 mg/kg) + compound 6.0 mg/kg, 120 min

T1 sequence (P20272 whole entry): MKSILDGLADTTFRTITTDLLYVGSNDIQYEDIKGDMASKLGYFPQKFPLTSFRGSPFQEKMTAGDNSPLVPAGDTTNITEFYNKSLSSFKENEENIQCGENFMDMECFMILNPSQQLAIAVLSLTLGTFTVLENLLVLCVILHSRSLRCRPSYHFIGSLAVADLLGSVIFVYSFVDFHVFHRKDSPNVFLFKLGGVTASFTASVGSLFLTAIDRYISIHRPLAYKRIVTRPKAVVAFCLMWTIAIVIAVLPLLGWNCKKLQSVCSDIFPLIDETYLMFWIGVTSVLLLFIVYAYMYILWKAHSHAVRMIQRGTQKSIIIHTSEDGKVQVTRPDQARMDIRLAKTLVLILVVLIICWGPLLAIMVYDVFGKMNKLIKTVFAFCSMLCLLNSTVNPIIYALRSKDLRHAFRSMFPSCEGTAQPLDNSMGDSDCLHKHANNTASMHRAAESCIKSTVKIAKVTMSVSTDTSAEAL

Compound	effect of the compound as such on body temperature (CB1 receptors [1])	Ki (CB2 receptors) [nM]	Body temperature (° C.) (CB1 receptors [2]; [3]) [°C]	Body temperature (° C.) (CB1 receptors [2]; [4]) [°C]	Body temperature (° C.) (CB1 receptors [2]; [5]) [°C]	Body temperature (° C.) (CB1 receptors [2]; [6]) [°C]	Body temperature (° C.) (CB1 receptors [2]; [7]) [°C]	Body temperature (° C.) (CB1 receptors [2]; [8]) [°C]	Body temperature (° C.) (CB1 receptors [2]; [9]) [°C]	Body temperature (° C.) (CB1 receptors [2]; [10]) [°C]	Body temperature (° C.) (CB1 receptors [2]; [11]) [°C]	Body temperature (° C.) (CB1 receptors [2]; [12]) [°C]	Body temperature (° C.) (CB1 receptors [2]; [13]) [°C]	Body temperature (° C.) (CB1 receptors [2]; [14]) [°C]	Body temperature (° C.) (CB1 receptors [2]; [15]) [°C]	Body temperature (° C.) (CB1 receptors [2]; [16]) [°C]	Body temperature (° C.) (CB1 receptors [2]; [17]) [°C]	Body temperature (° C.) (CB1 receptors [2]; [18]) [°C]	Body temperature (° C.) (CB1 receptors [2]; [19]) [°C]	Body temperature (° C.) (CB1 receptors [2]; [20]) [°C]	also measured
Cc1c(C(=O)NN2CCCCC2)nn(-c2ccc(Cl)cc2Cl)c1-c1ccc(Cl)s1 [Example 3.1b, N-piperidinyl-5-(5-Chloro-thiophen-2-yl)-1-(2′,4′-dichloro-phenyl)-4-methyl-1H-pyrazol-3-carboxamide]	does not cause as such any effect on the body temperature	476 ± 3	38.5	35.1	33.8	35.3	36.9	37.3	38.1	35.8	34.5	35.7	36.7	37.3	38.3	36.1	35.7	36.8	37.8	37.9	Body temperature (° C.) (CB1 receptors [2]; [21]): 38.4 °C; Body temperature (° C.) (CB1 receptors [2]; [22]): 36.1 °C; Body temperature (° C.) (CB1 receptors [2]; [23]): 35.7 °C; Body temperature (° C.) (CB1 receptors [2]; [24]): 36.8 °C; Body temperature (° C.) (CB1 receptors [2]; [25]): 37.8 °C; Body temperature (° C.) (CB1 receptors [2]; [26]): 37.9 °C; Body temperature (° C.) (CB1 receptors [2]; [27]): 38.6 °C; Body temperature (° C.) (CB1 receptors [2]; [28]): 37.7 °C; Body temperature (° C.) (CB1 receptors [2]; [29]): 37.9 °C; Body temperature (° C.) (CB1 receptors [2]; [30]): 37.9 °C; Body temperature (° C.) (CB1 receptors [2]; [31]): 38.2 °C; Body temperature (° C.) (CB1 receptors [2]; [32]): 37.9 °C; capability to pass the hemato-encephalic barrier (CB1 receptors [2]): capable to pass the hemato-encephalic barrier; CB1 antagonist behaviour in vivo (CB1 receptors [2]; hypothermia test): shows a CB1 antagonist behaviour; antagonism of the body temperature reduction induced by WIN 55,212-2 (CB1 receptors [2]): able to antagonize the effect of WIN 55,212-2
N-pyrrolidinyl-5-(5-Chloro-thiophen-2-yl)-1-(2,4′-dichloro-phenyl)-4-methyl-1H-pyrazol-3-carboxamide [Example 3.1d]	does not cause as such any effect on the body temperature	699 ± 21	38.1	35.3	33.8	35.6	36.5	37.2	38.1	35.7	34.4	35.0	36.3	37.2	37.9	36.5	34.7	35.8	36.7	37.1	Body temperature (° C.) (CB1 receptors [2]; [21]): 38.4 °C; Body temperature (° C.) (CB1 receptors [2]; [22]): 37.0 °C; Body temperature (° C.) (CB1 receptors [2]; [23]): 36.8 °C; Body temperature (° C.) (CB1 receptors [2]; [24]): 37.3 °C; Body temperature (° C.) (CB1 receptors [2]; [25]): 37.7 °C; Body temperature (° C.) (CB1 receptors [2]; [26]): 37.6 °C; Body temperature (° C.) (CB1 receptors [2]; [27]): 37.8 °C; Body temperature (° C.) (CB1 receptors [2]; [28]): 36.9 °C; Body temperature (° C.) (CB1 receptors [2]; [29]): 36.9 °C; Body temperature (° C.) (CB1 receptors [2]; [30]): 37.2 °C; Body temperature (° C.) (CB1 receptors [2]; [31]): 37.8 °C; Body temperature (° C.) (CB1 receptors [2]; [32]): 37.9 °C; capability to pass the hemato-encephalic barrier (CB1 receptors [2]): able to pass the hemato-encephalic barrier; antagonism of the body temperature reduction induced by WIN 55,212-2 (CB1 receptors [2]): able to antagonize the effect of WIN 55,212-2
